Data reported in patent publication US20240216344A1, “THIAZOLIDINEDIONE ANALOGS FOR THE TREATMENT OF NAFLD AND METABOLIC DISEASES” (Cirius Therapeutics, Inc., priority 2019, published 2024).

Legend:
[1] = tested on: mice fed a diet enriched in trans fat, cholesterol and fructose; assay: Preclinical NASH model: trans fat, cholesterol and fructose diet for 19 weeks, NAS and fibrosis histology; assay type: in vivo; details: 30 mg/kg; treatment of the mice or isolated hepatocytes
Experimental: Mice were fed a diet enriched in trans fat, cholesterol and fructose for 19 weeks to induce hepatic damage, which was assessed by histological changes in the NAS and fibrosis, measured by trichrome staining for collagen. MSDC-0602K (30 mg/kg) was given at either four weeks into the treatment or 16 weeks into the treatment as compared to the vehicle treated mice who were also on the modified diet. The results of mice who were kept on the normal diet are included for comparison. […] The signals for activation of the stellate cells and fibrosis are attenuated by treatment of the mice or isolated hepatocytes with MSDC-0602K.

[2] = tested on: subjects with biopsy proven NASH with fibrosis and no cirrhosis; assay: EMMINENCE Phase 2b trial, interim analysis at six months; assay type: in vivo, human; details: for Peripheral edema present: 6 months
Description: Detailed Description: This is a randomized, double-blinded study of three doses of MSDC-0602K or placebo given orally once daily to subjects with biopsy proven NASH with fibrosis and no cirrhosis. Visits to the clinic will be at baseline, 1, 2, 3, 6, 9, and 12 months, with one 2-week follow-up visit. Safety will be assessed by monitoring of vital signs, 12 lead electrocardiogram (ECG), physical examinations, safety labs, and adverse events (AEs).
An interim analysis of the EMMINENCE Phase 2b trial was conducted in the first 328 subjects who reached their six-month follow-up visit. […] In the two highest dose groups, at least 50% of patients with elevated baseline Alanine transaminase (ALT) or Aspartate Aminotransferase (AST) improved into the normal range at six months, as shown in Table 3.
The subjects included in this interim analysis had significant liver disease, as established by liver biopsy, with an average NAS at baseline of 5.3. […] Overall, baseline characteristics were well-balanced across treatment groups.

patients with NASH = assay: Meta-analysis of 17 NASH clinical trials: change from baseline in LFTs and biomarkers by study arm, composite outcome; assay type: in vivo, human; details: for % Change from Baseline ALT / % Change from Baseline AST / % Change from Baseline Alk Phos / % Change from Baseline CK-18 / % Change from Baseline ELF / % Change from Baseline GGT / % Change from Baseline HbA1c / % Change from Baseline Insulin: EMMINENCE, follow-up 12 months
Experimental: Meta-regressions of NASH clinical trials were performed to examine associations between biomarker and histological changes within treatment groups, and to additionally examine associations between treatment effects on biomarkers and on liver histology. Trials that met the following criteria were included: • Randomized controlled clinical trial • Paired biopsies performed at baseline and follow-up, scored using the NASH CRN system.
• Published results at baseline, follow-up, or changes from baseline for any the following liver injury markers or biomarkers: alanine aminotransferase (ALT), aspartate aminotransferase (AST), alkaline phosphatase, hemoglobin A1c (HbA1c), gamma-glutamyltransferase (GGT), insulin, cytokeratin-18 (CK-18), or Enhanced Liver Fibrosis (ELF) score. Variables selected were based on variables whose change was commonly reported in multiple studies. • Changes in histological scores for ballooning, inflammation, steatosis, and fibrosis, or the pre-determined endpoints of NASH resolution without worsening fibrosis or improvement in fibrosis with no worsening of NASH.
All results from a search of PubMed for the keywords (“nonalcoholic steatohepatitis” or “non-alcoholic steatohepatitis”) and (“clinical trial” or “randomized”) and filtered for “Clinical Trial” were reviewed. EudraCT and ClinicalTrials.gov were searched for the keyword “nonalcoholic steatohepatitis” with results further filtered for phase 2 or 3, interventional, terminated or completed trials. These three sources returned 265 (PubMed), 153 (ClinicalTrials.gov), and 56 (EudraCT) results, which were each individually reviewed for inclusion in the analysis. Data extracted by one analyst from each source that included means and SDs at baseline, end of study, and changes from baseline to end of study for continuous variables were verified and corrected by a second analyst. Where SDs were not available, any provided estimate of variation was used to derive the SD where possible; a plot-digitizer program was used where data were presented in figures only. Data for dichotomous endpoints were extracted as the number of subjects with the event and corresponding sample size.
Random effects weighted least squares meta-regressions with inverse variance weighting were used to examine the association of changes in ALT, AST, CK-18, HbA1c, fasting insulin levels, ELF, alkaline phosphatase and GGT with biopsy outcomes. CK-18[M30] was measured in all studies except EMMINENCE where CK-18[M651 was reported. These associations were assessed at an individual cohort level (within treatment group), as well as based on the treatment effect. Percent change from baseline in liver injury makers and biomarkers was used as the predictor when examining the associations in the individual cohorts with outcomes while the treatment ratio, the ratio of active to placebo with respect to the relative changes from baseline, was used as the predictor when assessing the association with the treatment effect on outcomes. Standardized mean changes (mean/SD) or standardized mean treatment differences (mean difference/pooled SD) were used for continuous outcomes and Freeman-Tukey double arcsine transformed proportions or log odds ratios were used for dichotomous outcomes. Meta-regression results were computed using the metafor package available in R. P-values <0.05 were considered statistically significant.
From the meta-regression results, ranks for the association with responses and treatment effects for each histologic outcome (changes in ballooning, inflammation, steatosis, and fibrosis; NASH resolution without worsening of fibrosis, and fibrosis improvement without worsening of NAS) were assigned across seven biomarkers (AST, GGT, HbA1c, insulin, CK-18, ELF, and alkaline phosphatase) for both the slope and the mediator p-value (ranks 1-7, with 7 assigned to the biomarker with the greatest slope or lowest p-value). An average rank across all outcomes was then assigned to each biomarker. […]

For `COc1cccc(C(=O)COc2ccc(CC3SC(=O)NC3=O)cc2)c1` (stereo not drawn) [MSDC-0602K], the “signals for activation of the stellate cells and fibrosis” value [1] was “attenuated”, the Peripheral edema present ([2]; 62.5 mg) was 7.80% and the “Percentage of patients with high baseline ALT who returned to normal range” value ([2]; 62.5 mg, six months) was 29%. For the same molecule, the “Percentage of patients with high baseline AST who returned to normal range” value ([2]; 62.5 mg, six months) was 36%, the “Placebo-corrected reduction in ALT” value ([2]; 125 mg cohort, six months) was 14.3 U/L and the “Placebo-corrected reduction in AST” value ([2]; 125 mg cohort, six months) was 7.9 U/L. For the same molecule, the Peripheral edema present ([2]; 125 mg) was 13.50%, the “Percentage of patients with high baseline ALT who returned to normal range” value ([2]; 125 mg, six months) was 60% and the “Percentage of patients with high baseline AST who returned to normal range” value ([2]; 125 mg, six months) was 50%. For the same molecule, the “Placebo-corrected reduction in ALT” value ([2]; 250 mg cohort, six months) was 10.6 U/L, the Placebo-corrected reduction in AST ([2]; 250 mg cohort, six months, not significant) was 4 U/L and the Peripheral edema present ([2]; 250 mg) was 11.10%. For the same molecule, the “Percentage of patients with high baseline ALT who returned to normal range” value ([2]; 250 mg, six months) was 56%, the “Percentage of patients with high baseline AST who returned to normal range” value ([2]; 250 mg, six months) was 52% and the “fasting glucose, HbA1c, insulin levels, and HOMA-IR” value ([2]; all subjects, 125 mg and 250 mg doses, six months) was “statistically significant improvements”. For the same molecule, the Adiponectin ([2]; all treatment cohorts, dose dependent, six months) was “increased significantly”, the “overall adverse event rates” value ([2]; placebo and all doses) was “similar” and the effect on lipids ([2]; six months) was “neutral effect”. The “patients with elevated baseline ALT or AST improved into the normal range” value ([2]; two highest dose groups, six months) was “at least 50%”, the “C-Reactive Protein levels” value ([2]; two lowest doses, six months) was “decrease” and the “treatment effect on the surrogate endpoint (weighted average of changes in AST, CK-18, HbA1c)” value (patients with NASH; 17 NASH clinical trials) was “largest treatment effects”. The “% Change from Baseline ALT” value (patients with NASH; 62.5 mg) was −15.71%, the “% Change from Baseline AST” value (patients with NASH; 62.5 mg) was −8.08% and the “% Change from Baseline Alk Phos” value (patients with NASH; 62.5 mg) was −6.28%. For the same molecule, the “% Change from Baseline CK-18” value (patients with NASH; 62.5 mg) was −7.08%, the “% Change from Baseline ELF” value (patients with NASH; 62.5 mg) was 1.16% and the “% Change from Baseline GGT” value (patients with NASH; 62.5 mg) was −17.56%. For the same molecule, the “% Change from Baseline HbA1c” value (patients with NASH; 62.5 mg) was −4.16%, the “% Change from Baseline Insulin” value (patients with NASH; 62.5 mg) was −10.85% and the “% Change from Baseline ALT” value (patients with NASH; 125 mg) was −28.13%. The “% Change from Baseline AST” value (patients with NASH; 125 mg) was −21.90%, the “% Change from Baseline Alk Phos” value (patients with NASH; 125 mg) was −10.70% and the “% Change from Baseline CK-18” value (patients with NASH; 125 mg) was −22.13%. For the same molecule, the “% Change from Baseline ELF” value (patients with NASH; 125 mg) was 0.09%, the “% Change from Baseline GGT” value (patients with NASH; 125 mg) was −13.47% and the “% Change from Baseline HbA1c” value (patients with NASH; 125 mg) was −3.79%. The “% Change from Baseline Insulin” value (patients with NASH; 125 mg) was −30.08%, the “% Change from Baseline ALT” value (patients with NASH; 250 mg) was −23.82% and the “% Change from Baseline AST” value (patients with NASH; 250 mg) was −11.81%. The “% Change from Baseline Alk Phos” value (patients with NASH; 250 mg) was −18.74%, the “% Change from Baseline CK-18” value (patients with NASH; 250 mg) was −8.61% and the “% Change from Baseline ELF” value (patients with NASH; 250 mg) was 0.89%. For the same molecule, the “% Change from Baseline GGT” value (patients with NASH; 250 mg) was −28.14%, the “% Change from Baseline HbA1c” value (patients with NASH; 250 mg) was −3.89% and the “% Change from Baseline Insulin” value (patients with NASH; 250 mg) was −30.62%.
